In US20020038064A1, “Colorless petroleum marker dyes” (priority 2000, published 2002):

Test: Water extraction test of 10 ppm marker solution in kerosene
Format: physicochemical
Conditions: 10 mL of 10 ppm solution in kerosene stirred with 10 mL water for ½ hour; layers separated, 2 mL developer added to each layer
Description: A marker solution was prepared by dissolving a 100 mg portion of the residue in xylenes (100 mL), and diluting 1 mL of the resulting solution to 100 mL with kerosene to make a 10 ppm solution.
A developer was made by dissolving 1 g of a 40% solution of benzyltrimethylammonium hydroxide in methanol in 99 g of 2-ethyl-1-hexanol. To a 10 mL portion of the 10 ppm marker solution prepared above was added 2.5 mL of the developer. […] If necessary, quantitative determination of the marker concentration can be accomplished by measuring the absorbance of the solution at a wavelength of 581 nm.
A 10 mL portion of the 10 ppm solution prepared above was stirred with 10 mL of water for ½ hour and the layers were separated. […] Addition of 2 mL of developer solution to the water layer gave no color.

CCCC(=O)Oc1ccc(C2(c3ccc(OC(=O)CCC)c(C)c3)OC(=O)c3ccccc32)cc1C [Example 1, Di-n-Butyl Ester of o-Cresolphthalein]
extraction of the marker into the water layer: not extracted into the water layer
